Test [1] deals with Streptococcus mutans. Kind of test: Inhibition of Streptococcus mutans UA159 biofilm formation assessed as conversion of carbohydrates to organic acid measured as pH at 5 ug/ml. The format is functional.
Test [2] deals with Streptococcus mutans. Kind of test: Inhibition of Streptococcus mutans UA159 biofilm formation assessed as conversion of carbohydrates to organic acid measured as pH at 1.25 ug/ml. The format is functional.
Test [3] has as its system Streptococcus mutans. Kind of test: Inhibition of Streptococcus mutans UA159 biofilm formation assessed as conversion of carbohydrates to organic acid measured as pH at 10 ug/ml. It counts as functional.
The test system of test [4] is Streptococcus mutans. Kind of test: Inhibition of Streptococcus mutans UA159 biofilm formation assessed as conversion of carbohydrates to organic acid measured as pH at 0.312 ug/ml. It counts as functional.
In test [5] the test system is Streptococcus mutans. Kind of test: Inhibition of Streptococcus mutans UA159 biofilm formation assessed as conversion of carbohydrates to organic acid measured as pH at 80 ug/ml. The format is functional.
Test [6] has as its system Streptococcus mutans. Kind of test: Inhibition of Streptococcus mutans UA159 biofilm formation at sub-MIC after 24 hr by crystal violet staining analysis. It counts as functional.
Test [7] concerns Streptococcus mutans. Kind of test: Inhibition of Streptococcus mutans UA159 biofilm formation after 24 hr by crystal violet staining analysis. The format is functional, organism-based.
Test [8] has as its system Streptococcus mutans. Kind of test: Antimicrobial activity against Streptococcus mutans UA159 after 24 hr by two-fold serial dilution method. It counts as functional. Conditions: UA159, 24 h.
The target in test [9] is T1, Glucosyltransferase-SI (Streptococcus mutans serotype c (strain ATCC 700610 / UA159)) (UniProt P13470).
T1 sequence (whole entry): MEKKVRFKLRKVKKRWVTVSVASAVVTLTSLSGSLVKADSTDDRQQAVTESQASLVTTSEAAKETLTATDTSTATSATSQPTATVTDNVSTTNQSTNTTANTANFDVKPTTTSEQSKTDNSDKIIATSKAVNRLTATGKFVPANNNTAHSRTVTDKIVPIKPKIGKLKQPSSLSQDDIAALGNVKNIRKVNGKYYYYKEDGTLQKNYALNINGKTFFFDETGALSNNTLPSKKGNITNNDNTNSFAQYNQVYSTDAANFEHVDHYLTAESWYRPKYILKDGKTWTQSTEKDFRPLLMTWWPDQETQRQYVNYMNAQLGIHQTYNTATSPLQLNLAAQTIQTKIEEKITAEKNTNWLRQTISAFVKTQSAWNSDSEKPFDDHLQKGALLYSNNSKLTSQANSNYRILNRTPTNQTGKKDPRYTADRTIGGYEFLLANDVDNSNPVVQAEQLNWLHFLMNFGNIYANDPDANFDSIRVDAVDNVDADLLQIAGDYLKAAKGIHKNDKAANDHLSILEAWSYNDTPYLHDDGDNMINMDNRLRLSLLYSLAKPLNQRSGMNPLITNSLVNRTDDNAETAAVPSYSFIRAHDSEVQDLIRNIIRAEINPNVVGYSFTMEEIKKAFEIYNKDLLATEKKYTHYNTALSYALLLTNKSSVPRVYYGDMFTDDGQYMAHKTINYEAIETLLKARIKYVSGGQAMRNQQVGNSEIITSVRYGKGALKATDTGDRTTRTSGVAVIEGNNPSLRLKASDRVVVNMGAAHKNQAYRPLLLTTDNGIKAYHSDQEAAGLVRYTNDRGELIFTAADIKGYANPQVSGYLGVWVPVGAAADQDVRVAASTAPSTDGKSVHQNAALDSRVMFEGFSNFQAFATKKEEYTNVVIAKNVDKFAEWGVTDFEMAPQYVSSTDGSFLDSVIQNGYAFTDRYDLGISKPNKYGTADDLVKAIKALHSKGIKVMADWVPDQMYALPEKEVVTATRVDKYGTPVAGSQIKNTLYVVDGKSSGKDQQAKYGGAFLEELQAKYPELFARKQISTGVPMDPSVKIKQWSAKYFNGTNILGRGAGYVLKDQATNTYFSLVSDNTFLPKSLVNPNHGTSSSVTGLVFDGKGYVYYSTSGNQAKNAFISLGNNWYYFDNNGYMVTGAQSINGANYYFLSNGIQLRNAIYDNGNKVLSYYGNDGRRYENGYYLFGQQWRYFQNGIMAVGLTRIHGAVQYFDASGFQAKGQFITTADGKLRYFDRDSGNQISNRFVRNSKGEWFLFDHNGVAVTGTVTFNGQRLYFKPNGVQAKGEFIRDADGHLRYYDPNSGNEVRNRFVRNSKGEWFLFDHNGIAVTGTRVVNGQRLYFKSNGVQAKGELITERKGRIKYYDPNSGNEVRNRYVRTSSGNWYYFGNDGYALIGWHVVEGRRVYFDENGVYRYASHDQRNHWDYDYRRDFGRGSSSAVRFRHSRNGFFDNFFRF
Kind of test: Inhibition of Streptococcus mutans UA159 Glucosyltransferase assessed as water-insoluble glucan production using sucrose as substrate at 2.5 ug/ml after 24 hr.

For test [10], the system named is Streptococcus mutans. Kind of test: Inhibition of Streptococcus mutans UA159 cell surface hydrophobicity at 5 ug/ml by spectrophotometry (reference value: 88.01 +/- 1.94%). It counts as functional.
For test [11], the system named is Streptococcus mutans. Kind of test: Inhibition of Streptococcus mutans UA159 biofilm formation assessed as conversion of carbohydrates to organic acid measured as pH at 0.625 ug/ml. The format is functional.
Test [12] relates to Streptococcus mutans. Kind of test: Inhibition of sucrose-dependent adhesion of Streptococcus mutans UA159 to saliva-coated glass surface at 80 ug/ml by spectrophotometry. It counts as functional, organism-based.
In test [13] the test system is Streptococcus mutans. Kind of test: Inhibition of Streptococcus mutans UA159 biofilm formation assessed as conversion of carbohydrates to organic acid measured as pH at 20 ug/ml. The format is functional.
Test [14] has as its system Streptococcus mutans. Kind of test: Inhibition of adhesion of Streptococcus mutans UA159 to saliva-coated glass surface at 0.156 to 5120 ug/ml by spectrophotometry. The format is functional, organism-based.
Test [15] relates to Streptococcus mutans. Kind of test: Inhibition of Streptococcus mutans UA159 biofilm formation after 24 hr at 20 ug/ml by crystal violet staining analysis. The format is functional. As to conditions: UA159, 24 h.
The subject of test [16] is Streptococcus mutans. Kind of test: Inhibition of Streptococcus mutans UA159 cell surface hydrophobicity at 20 ug/ml by spectrophotometry (reference value: 88.01 +/- 1.94%). The format is functional.
Test [17] has as its system Streptococcus mutans. Kind of test: Inhibition of sucrose-dependent adhesion of Streptococcus mutans UA159 to saliva-coated glass surface at 1.25 ug/ml by spectrophotometry. It counts as functional.
Test [18] deals with Streptococcus mutans. Kind of test: Inhibition of Streptococcus mutans UA159 biofilm formation assessed as conversion of carbohydrates to organic acid measured as pH at 2.5 ug/ml. It counts as functional.
Test [19] deals with Streptococcus mutans. Kind of test: Inhibition of Streptococcus mutans UA159 biofilm formation assessed as conversion of carbohydrates to organic acid measured as pH at 40 ug/ml. It counts as functional.
For test [20], the system named is Streptococcus mutans. Kind of test: Inhibition of sucrose-dependent adhesion of Streptococcus mutans UA159 to saliva-coated glass surface at 10 ug/ml by spectrophotometry. It counts as functional.
Test [21] has as its system Streptococcus mutans. Kind of test: Inhibition of Streptococcus mutans UA159 biofilm formation assessed as inability of cells to aggregrate and form clumps at MIC after 24 hr by confocal laser scanning microscopic analysis. It counts as functional, organism-based.
In test [22] the test system is Streptococcus mutans. Kind of test: Inhibition of Streptococcus mutans UA159 biofilm formation assessed as biofilm thickness at 20 ug/ml after 24 hr by confocal laser scanning microscopic analysis (reference value: 19.74 +/- 0.5 uM). It counts as functional.

The values below come from ChEMBL document CHEMBL3045716, “Isolation and characterization of n-octacosanoic acid from Viburnum foetens: a novel antibiofilm agent against Streptococcus Mutans” (2012).

Converted amounts (≈) assume the structure as drawn. The source made the active and inactive calls. The calls are words filed in the database; no cut-off is given here.

Regarding `CCCCCCCCCCCCCCCCCCCCCCCCCCCC(=O)O` [N-OCTACOSANOIC ACID], the pH was 6.02 in the test with Streptococcus mutans [1]; 5.14 in the test with Streptococcus mutans [2]; 6.48 in the test with Streptococcus mutans [3]; 4.65 in the test with Streptococcus mutans [4]; 7.55 with Streptococcus mutans [5]; 4.94 with Streptococcus mutans [11]. Moreover, the results for the pH in the test with Streptococcus mutans [13], with Streptococcus mutans [18] and with Streptococcus mutans [19] were 6.66, 5.68 and 6.98, respectively. Besides, the “inhibition (INH)” value in the test with Streptococcus mutans [6] came to 60%. For the same compound, the values for the inhibition result (in the test with Streptococcus mutans [7]; in test [9]) were “Dose-dependent effect” and 50%, respectively. In the test with Streptococcus mutans [8], this compound returned an MIC of 80 µg/mL (≈ 188 µM). In the test on Streptococcus mutans [10], this compound came in with an inhibition at 5 µg/mL of 48.4%. Further, the inhibition result in the test on Streptococcus mutans [12], in the test on Streptococcus mutans [14] and in the test with Streptococcus mutans [21] was “Active” in each case. The values for the inhibition at 20 µg/mL in the test with Streptococcus mutans [15] and in the test with Streptococcus mutans [16] were 50% and 20.1%, respectively. The compound also returned an inhibition at 1.25 µg/mL with Streptococcus mutans [17] of 61.3%. In the test on Streptococcus mutans [20], this compound displayed an inhibition at 10 µg/mL of 50%. Besides, the biofilm thickness in the test on Streptococcus mutans [22] stood at 12.7 µm.

The term inhibition denotes the change of the read-out against control, counted positive when it falls. Broadly, the MIC is the lowest concentration found to suppress growth. High values mean weaker potency, low ones greater potency.
